# Measurements as given in patent publication US4205164A, “Antibiotic A201C, A201D and A201E” (priority 1979, dated 1980).
# Like-named read-outs stand apart in the source and are kept apart here.
# Legend:
# [1] = tested on: Streptococcus Park; assay: MIC by standard agar-dilution test, Streptococcus Park; type: cell-based
# Description: (§1) The minimal inhibitory concentrations (MIC's) at which A201C, A201D, and A201E inhibit selected Gram positive bacteria, as determined by standard agar-dilution tests, are summarized in Table I: […]
# [2] = tested on: Staph. epi. Epi2; assay: MIC by standard agar-dilution test, Staph. epi. Epi2; type: cell-based
# Description: as §1
# [3] = tested on: Staph. aureus X1.1; assay: MIC by standard agar-dilution test, Staph. aureus X1.1; type: cell-based; settings: Staphylococcus aureus; Staph. aureus X1.1, agar dilution
# Description: as §1
# [4] = tested on: Staph. epi. Epi1; assay: MIC by standard agar-dilution test, Staph. epi. Epi1; type: cell-based
# Description: as §1
# [5] = tested on: H. influ. R252; assay: MIC by standard agar-dilution test, H. influ. R252; type: cell-based
# [6] = tested on: Streptococcus X66; assay: MIC by standard agar-dilution test, Streptococcus X66; type: cell-based
# Description: as §1
# [7] = tested on: Staph. aureus V41; assay: MIC by standard agar-dilution test, Staph. aureus V41; type: cell-based; settings: Staphylococcus aureus
# Description: as §1
# [8] = tested on: Staph. aureus X400; assay: MIC by standard agar-dilution test, Staph. aureus X400; type: cell-based; settings: Staphylococcus aureus
# Description: as §1
# [9] = tested on: Streptococcus C203; assay: MIC by standard agar-dilution test, Streptococcus C203; type: cell-based
# Description: as §1
# [10] = tested on: H. influ. HOLT; assay: MIC by standard agar-dilution test, H. influ. HOLT; type: cell-based
# [11] = tested on: Streptococcus 9960; assay: MIC by standard agar-dilution test, Streptococcus 9960; type: cell-based; settings: Streptococcus 9960, agar dilution
# Description: as §1
# [12] = tested on: Staph. aureus S13E; assay: MIC by standard agar-dilution test, Staph. aureus S13E; type: cell-based; settings: Staphylococcus aureus
# Description: as §1
# [13] = pKa; type: physicochemical; settings: 66% dmf-h2o
# [14] = tested on: pathogenic microorganisms, particularly Gram positive bacteria; assay: Inhibition of growth of pathogenic microorganisms (general statement); type: cell-based
# [15] = tested on: Diplococcus pneumoniae Park I; assay: Therapy of mouse infection, Diplococcus pneumoniae Park I; type: in vivo, Mice; settings: 1 and 5 hour post infection, 7 days
# Protocol: (§2) One hour and five hours later the mice are given a subcutaneous (S.C.) dose of the compound in 60% propylene glycol. The compound is administered at five different dosage levels (eight mice for each dosage level). The animals are observed for 7 days and the number of survivors is noted. For each organism, the ED50 value is calculated using the method of W. Wick, J. Bacteriol. 81, 233 (1961).
# (§3) ^b Compound administered subcutaneously (S.C.), 1 and 5 hour post
# [16] = tested on: Staphylococcus aureus 3055; assay: Therapy of mouse infection, Staphylococcus aureus 3055; type: in vivo, Mice; settings: 1 and 5 hour post infection, 7 days
# Protocol: as §2, §3
# [17] = tested on: experimental bacterial infections; assay: In vivo therapeutic activity against experimental bacterial infections (general statement); settings: mice
# Protocol: as §2
# [18] = tested on: Streptococcus pyogenes C203; assay: Therapy of mouse infection, Streptococcus pyogenes C203; type: in vivo, Mice; settings: 1 and 5 hour post infection, 7 days
# Protocol: as §2, §3
# [19] = H. influ. R252, agar dilution, read-out: MIC
smiles,measurement,setting,value
"COC(COC1OC(C)C(OC)C(OC)C1O)=C1OC(Oc2ccc(C=C(C)C(=O)NC3C(CO)OC(n4cnc5c(N(C)C)ncnc54)C3O)cc2)C(O)C1O (stereo not drawn) [Factor A201A, reference compound]",MIC,[1],4 µg/mL
same,MIC,[2],8 µg/mL
same,MIC,[3],1 µg/mL
same,MIC,[4],16 µg/mL
same,MIC,[5]; [19],4 µg/mL
same,MIC,[6],8 µg/mL
same,MIC,"[7]; Staph. aureus V41, agar dilution, read-out: MIC",16 µg/mL
same,MIC,[8],1 µg/mL
same,MIC,[9],0.25 µg/mL
same,MIC,[10],8 µg/mL
same,MIC,[11],64 µg/mL
same,MIC,[12],1 µg/mL
COC(COC1OC(C)C(OC)C(OC)C1O)=C1OC(Oc2ccc(C=C(C)C(=O)NC3C(CO)OC(n4cnc5c(N(C)C)ncnc54)C3O)cc2O)C(O)C1O (stereo not drawn) [Factor C],MIC,[1],8 µg/mL
same,MIC,[2],64 µg/mL
same,pKa,[13],11.4
same,inhibition of growth of pathogenic microorganisms,[14],"inhibit the growth of certain pathogenic microorganisms, particularly Gram positive bacteria"
same,MIC,[3],8 µg/mL
same,MIC,[4],128 µg/mL
same,Survivors/Total No. of Mice,[15]; 4.378 mg/kg S.C.,0/8
same,Survivors/Total No. of Mice,[15]; 8.75 mg/kg S.C.,0/8
same,Survivors/Total No. of Mice,[15]; 17.5 mg/kg S.C.,0/8
same,Survivors/Total No. of Mice,[15]; 35 mg/kg S.C.,0/8
same,Survivors/Total No. of Mice,[15]; 70 mg/kg S.C.,0/8
same,ED50,"[15]; Streptococcus pneumoniae, sc, 168 h, S.C., IP infection 260 LD50's",> 70 mg/kg
same,MIC,[5],32 µg/mL
same,Survivors/Total No. of Mice,[16]; 2.19 mg/kg S.C.,0/8
same,Survivors/Total No. of Mice,[16]; 4.375 mg/kg S.C.,1/8
same,Survivors/Total No. of Mice,[16]; 8.75 mg/kg S.C.,3/8
same,Survivors/Total No. of Mice,[16]; 17.5 mg/kg S.C.,0/8
same,Survivors/Total No. of Mice,[16]; 35 mg/kg S.C.,5/8
same,ED50,"[16]; Staphylococcus aureus, 3055, sc, 168 h, S.C., IP infection 260 LD50's",26 mg/kg
same,MIC,[6],64 µg/mL
same,MIC,[7]; V41,> 128 µg/mL
same,in vivo therapeutic activity against experimental bacterial infections,[17]; listed as A201C,has shown in vivo therapeutic activity against experimental bacterial infections
same,in vivo therapeutic activity against experimental bacterial infections,[17]; listed as Formula II,has shown in vivo therapeutic activity against experimental bacterial infections in mice
same,MIC,[8],8 µg/mL
same,MIC,[9],1 µg/mL
same,MIC,[10],132 µg/mL
same,Survivors/Total No. of Mice,[18]; 2.19 mg/kg S.C.,0/8
same,Survivors/Total No. of Mice,[18]; 4.375 mg/kg S.C.,4/8
same,Survivors/Total No. of Mice,[18]; 8.75 mg/kg S.C.,6/8
same,Survivors/Total No. of Mice,[18]; 17.5 mg/kg S.C.,8/8
same,Survivors/Total No. of Mice,[18]; 35 mg/kg S.C.,8/8
same,ED50,"[18]; Streptococcus pyogenes, C203, sc, 168 h, S.C., IP infection 243 LD50's",5.3 mg/kg
same,MIC,[11],> 128 µg/mL
same,MIC,[12],8 µg/mL
COC(CO)=C1OC(Oc2ccc(C=C(C)C(=O)NC3C(CO)OC(n4cnc5c(N(C)C)ncnc54)C3O)cc2)C(O)C1O (stereo not drawn) [Factor D],MIC,[1],64 µg/mL
same,MIC,[2],128 µg/mL
same,inhibition of growth of pathogenic microorganisms,[14],"inhibit the growth of certain pathogenic microorganisms, particularly Gram positive bacteria"
same,MIC,[3],32 µg/mL
same,MIC,[4],128 µg/mL
same,MIC,[5]; [19],64 µg/mL
same,MIC,[6],> 128 µg/mL
same,MIC,[7]; V41,> 128 µg/mL
same,MIC,[8],64 µg/mL
same,MIC,[9],8 µg/mL
same,MIC,[10],128 µg/mL
same,MIC,[11],> 128 µg/mL
same,MIC,[12],32 µg/mL
COC(COC1OC(C)C(OC)C(OC)C1O)C1OC(Oc2ccc(C=C(C)C(=O)NC3C(CO)OC(n4cnc5c(N(C)C)ncnc54)C3O)cc2)C(O)C1O (stereo not drawn) [Factor E],MIC,[1],16 µg/mL
same,MIC,[2],64 µg/mL
same,inhibition of growth of pathogenic microorganisms,[14],"inhibit the growth of certain pathogenic microorganisms, particularly Gram positive bacteria"
same,MIC,[3],16 µg/mL
same,MIC,[4],64 µg/mL
same,MIC,[5]; [19],32 µg/mL
same,MIC,[6],64 µg/mL
same,MIC,[7]; V41,128 µg/mL
same,MIC,[8],16 µg/mL
same,MIC,[9],1 µg/mL
same,MIC,[10],32 µg/mL
same,MIC,[11],> 128 µg/mL
same,MIC,[12],16 µg/mL
